“Also recorded” adds a separate entry of the source. Blank lines part the entries; values can stand above or below the molecule they belong to. Bridges are numbered along the chain shown (N, C = ends). Roman numbers before positions name the chains, in order. Where no end group is shown, it is not given here.
Experiments:
FGFR/KL-complex = biological target: T1, FGFR/KL-complex (Homo sapiens, UniProt Q9UEF7); experiment: FGF23-antagonism measured by relative p-Erk levels in 293/KL cells; type: cell-based; settings: for IC50: p-Erk
T1 construct: expressed in transfected cells; host or cells: 293T HEK cells overexpressing human KL (293/KL)
T1 sequence (Q9UEF7 34-1012): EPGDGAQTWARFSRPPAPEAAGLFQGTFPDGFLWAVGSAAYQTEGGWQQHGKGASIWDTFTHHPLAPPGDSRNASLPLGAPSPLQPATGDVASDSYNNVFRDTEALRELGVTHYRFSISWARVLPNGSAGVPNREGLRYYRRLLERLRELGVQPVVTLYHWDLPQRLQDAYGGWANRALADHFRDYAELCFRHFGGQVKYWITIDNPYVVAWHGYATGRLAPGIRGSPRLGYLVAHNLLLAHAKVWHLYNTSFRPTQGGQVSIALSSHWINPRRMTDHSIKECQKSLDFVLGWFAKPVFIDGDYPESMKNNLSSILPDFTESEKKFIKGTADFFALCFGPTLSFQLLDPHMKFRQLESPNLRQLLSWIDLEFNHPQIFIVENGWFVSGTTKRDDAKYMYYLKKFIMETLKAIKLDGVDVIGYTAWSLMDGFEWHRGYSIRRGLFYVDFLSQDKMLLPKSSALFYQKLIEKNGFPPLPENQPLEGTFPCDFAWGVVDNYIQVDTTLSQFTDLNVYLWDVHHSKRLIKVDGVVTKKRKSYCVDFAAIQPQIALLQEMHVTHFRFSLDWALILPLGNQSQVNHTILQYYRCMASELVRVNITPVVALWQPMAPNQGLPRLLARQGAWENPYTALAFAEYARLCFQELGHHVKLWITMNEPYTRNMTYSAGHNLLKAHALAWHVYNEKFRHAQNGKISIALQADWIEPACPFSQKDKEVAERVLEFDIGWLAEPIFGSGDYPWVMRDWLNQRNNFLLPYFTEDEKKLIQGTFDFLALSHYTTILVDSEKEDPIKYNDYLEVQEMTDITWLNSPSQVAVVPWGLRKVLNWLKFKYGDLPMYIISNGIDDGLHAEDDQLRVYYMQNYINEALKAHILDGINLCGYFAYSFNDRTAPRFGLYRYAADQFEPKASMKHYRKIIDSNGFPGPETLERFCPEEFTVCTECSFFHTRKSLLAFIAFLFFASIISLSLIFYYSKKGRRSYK
Excerpt: FIGS. 1A-1F Structure activity analysis among the two KL-interacting peptides C26 and C28. FIG. 1A provides a schematic representation of FGF23 showing the Amino terminal FGF23 core (amino acids 25-179) and the C-terminal portion that comprises two Klotho interaction sites “C26” (amino acids 180-205) and “C28” (amino acids 212-239); FIGS. 1B-1F are graphs presenting FGF23-antagonism measured by the relative p-Erk levels in 293/KL cells with increasing doses of the peptide antagonist. (FIG. 1B) compares C26 and C28; FIG. 1C is a graph showing the effect of the substitutions from C28 sequence into the C26 sequence on the peptide activity, comparing peptides C26(●), 1(▪), 2( ? ), 3(▴), and 4(○); FIG. 1D is a graph showing the effect of the substitutions from C28 sequence in the C26 sequence on the peptide activity, C28(●), 5(▪), 6( ? ), and 7(▴); FIGS. 1E & 1F are graphs showing the activity of shortened FGF23 C-terminal peptide antagonist in vitro. For FIG. 1E peptides C26(●), 8(▪), 9( ? ) are compared; For FIG. 1F peptides 6(●), 10(▪), 11( ? ), and 12(▴).
FIGS. 4A & 4B provide data relating to mutation of the C-terminal FGF23 peptides to assess their KL-interaction site by study of FGF23-activity antagonism in 293/KL cells. FGF23 C-terminal peptides tested for their ability to block FGF23-signaling measured by relative p-Erk levels are shown in FIG. 4A for peptides C26 (●), C28(▪), C26A1(T ? , FGF23^180-205, A^188), C28A2(▴, FGF23^212-239, A^222); and in FIG. 4B for peptides C72(●, FGF23^180-251), C72A1(▪, FGF23^180-251, A^188), C72 A2 ( ? , FGF23^180-251, A^222), C72A1A2(▴, FGF23^180-251, A^188,222). […]

FGFR/KL complex = experiment: FGF23-signaling activity (stimulation of Erk-phosphorylation) in 293/KL cells; type: cell-based, human
Description: (§1) FIGS. 5A-5D provide data relating to the activities of FGF23-analogs containing one or two active KL-interaction sites by in vitro and in vivo methods. […] FIGS. 5B-5D are scatter plots presenting an in vivo assessment of FGF23-activity in mice. WT mice were treated with 0.5 mg/kg body weight with either FGF23, FGF23 A^188, FGF23 A^222, FGF23 A^188,222, or vehicle, n=5 or 10/group, and post 3-hours the gene expression changes were studied by quantitative real time PCR for target genes, FIG. 5B represents measurement of Cyp24a1, FIG. 5C represents measurement of Cyp27b1, and FIG. 5D represents measurement of Egr1. The data is presented as a scatter plot where each dot represents one animal, mean ±SEM. One-way ANOVA with Tukey's comparison was employed for statistical analyses where***P<0.001 vs. vehicle; #P<0.05, ##P<0.01, ###P<0.001 vs FGF23; and $$$P<0.001 vs FGF23 A^188,222 was calculated.
Whether FGF23-based agonism can employ each of the two KL-interaction sites as witnessed in the C72 peptide antagonist was studied. To do so, a selective mutation at position Asp188 or Asp222 was made in the native FGF23. […] This is consistent with prior reports where C-terminal sequence deletion after residue 205 position had no apparent effect on cellular signaling (FIG. 5A, Table 3). […] Asp188 residue is purported to be singularly essential for KL-binding and FGF23 activity, and its importance was substantiated by the lack of antagonism when the C26 peptide was similarly mutated from Asp to Ala (FIG. 4A). […] To confirm that these observations were not resulting from unexpected changes in higher order structure that was not apparent in biosynthesis, purification, or formulation of the mutant proteins their biophysical integrity were directly assessed by thermal denaturation.
The N-terminal domain of the endocrine FGFs primarily determines the FGFR-activation while the C-terminal sequence guides the co-receptor specificity with a Klotho co-receptor, KL or KLB. The receptor complex specificity among the endocrine FGF-proteins can be modulated by altering their C-terminal domains. Consequently, two FGF21-23 chimeric protein analogs were prepared containing the FGF21 N-terminal core with its C-terminal KLB-binding peptide replaced with an FGF23 C-terminal peptide sequence constituted by C72 (FGF21-23 C72) or C26 (FGF21-23 C26) (Table 3).

[1] = test system: FGFR/KL-downstream targets Cyp24a1, Cyp27b1 and Egr1; experiment: Mouse kidney gene expression after FGF23 protein analogs (quantitative real time PCR); type: in vivo; settings: WT mice, 0.5 mg/kg, 3 hours
Description: as §1
To test whether C28 as the second KL-interaction site can promote FGF23 in vivo activity, the single site FGF23-analogs were assessed for their ability to alter kidney gene expression in normal mice. Four proteins (FGF23, FGF23 A188, FGF23 A222 or FGF23 A188, 222 analogs) were each dosed to mice 0.5 mg/kg and 3 hours later quantitative real time PCR was employed to assess kidney mRNA expression of the FGFR/KL-downstream targets Cyp24a1, Cyp27b1 and early growth response protein 1 (Egr1). […] This is not surprising since the optimal treatment time for Egrl modulation is as early as 1 hour for FGF-signaling measurements. The magnitude in upregulation of gene expression for Cyp24a1 was the highest, with twenty-fold induction by native FGF23 treatment (FIG. 5B). […] Similarly, the Egrl induction is reduced for FGF23 A188 and FGF23 A222 analogs as compared to native FGF23 (P<0.05, FIG. 5D), but no difference is observed among the analogs and FGF23 for Cyp27b1 (FIG. 5C).

[2] = Table 2, block of FGF23-signaling
[3] = Table 1, block of FGF23-signaling

Molecule: DPLNVLKPRARM [Peptide 9]
- IC50 (FGFR/KL-complex; [2]): 0.542 ± 0.282 µM

Molecule: I: SAEDDSERDPLNVLKPRARMTPAPASGPEGC / II: SAEDDSERDPLNVLKPRARMTPAPASGPEGC (disulfide I:31-II:31) [Peptide 17]
- enhancement of FGF23-antagonistic potency of dimer compared to corresponding monomers (FGFR/KL-complex; fold): approximately twenty to fifty-fold

Molecule: I: SAEDNSPMASAPLGVVRPRARMTHAGGTGPEGC / II: SAEDNSPMASDPLGVVRPRARMTHAGGTGPEGC (disulfide I:33-II:33) [Peptide 22]
- FGF23-antagonist activity (in words) (FGFR/KL-complex): reduced in potency relative to C72 and peptide 20

Molecule: I: SAEDNSPMASDPLGVVRGGRVNTHAGGTGPEGC / II: SAEDDSERDPLNVLKPRARMTPAPASGPEGC (disulfide I:33-II:31) [Peptide 19]
- FGF23-antagonist activity (in words) (FGFR/KL-complex): indistinguishable from the activity of the two homodimers
- enhancement of FGF23-antagonistic potency of dimer compared to corresponding monomers (FGFR/KL-complex; fold): approximately twenty to fifty-fold

Molecule: I: SAEDNSPMASDPLGVVRPRARMTHAGGTGPEGC / II: SAEDNSPMASDPLGVVRPRARMTHAGGTGPEGC (disulfide I:33-II:33) [Peptide 20]
- FGF23-antagonist activity (in words) (FGFR/KL-complex): equal to that of C72; also recorded: no greater potency than C72

Molecule: PMASDPLGVVRPRARM [Peptide 10]
- IC50 (FGFR/KL-complex; [2]): 0.0038 ± 0.0009 µM

Molecule: SAEDDSERAPLNVLKPRARMTPAPASCSQELPSAEDNSPMASAPLGVVRGGRVNTHAGGTGPEGCRPFAKFI [C72 A1A2, FGF23^180-251, A^188,222]
- FGF23-antagonist activity (in words) (FGFR/KL-complex): complete loss of activity

Molecule: SAEDDSERAPLNVLKPRARMTPAPASCSQELPSAEDNSPMASDPLGVVRGGRVNTHAGGTGPEGCRPFAKFI [C72 A1, FGF23^180-251, A^188]
- IC50 (FGFR/KL-complex; [3]): 0.0245 ± 0.0115 µM
- reduction in inhibitory potency relative to C72 (FGFR/KL-complex; fold): more than twenty-fold

Molecule: SAEDDSERDPLNVLKPRARMTPAPASCSQELPSAEDNSPMASAPLGVVRGGRVNTHAGGTGPEGCRPFAKFI [C72 A2, FGF23^180-251, A^222]
- IC50 (FGFR/KL-complex; [3]): 0.0331 ± 0.0158 µM
- reduction in inhibitory potency relative to C72 (FGFR/KL-complex; fold): more than twenty-fold

B1: FGF21: FGF21^29-209 (protein)
chain: HPIPDSSPLLQFGGQVRQRYLYTDDAQQTEAHLEIREDGTVGGAADQSPESLLQLKALKPGVIQILGVKTSRFLCQRPDGALYGSLHFDPEACSFRELLLEDGYNVYQSEAHGLPLHLPGNKSPHRDPAPRGPARFLPLPGLPPALPEPPGILAPQPPDVGSSDPLSMVGPSQGRSPSYAS
- FGF23-type agonism / FGFR/KL activation (in words) (FGFR/KL complex): unable to activate

The next lines start with results.

- IC50 (FGFR/KL-complex; [2]): 0.0171 ± 0.0006 µM
Molecule: ASDPLGVVRPRARM [Peptide 11]

- IC50 (FGFR/KL-complex; [2]): 0.0709 ± 0.0295 µM
Molecule: DPLGVVRPRARM [Peptide 12]

- IC50 (FGFR/KL-complex; [2]): 0.097 ± 0.0303 µM
Molecule: ERDPLNVLKPRARM [Peptide 8]

- enhancement of FGF23-antagonistic potency of dimer compared to corresponding monomers (FGFR/KL-complex; fold): approximately twenty to fifty-fold
Molecule: I: SAEDNSPMASDPLGVVRGGRVNTHAGGTGPEGC / II: SAEDNSPMASDPLGVVRGGRVNTHAGGTGPEGC (disulfide I:33-II:33) [Peptide 18]

- enhancement of antagonistic potency relative to C28 (FGFR/KL-complex; fold): two to three-fold
Molecule: SAEDNSPMASDPLGVVRGGRVNTHAGGTGPEGCRPFAKFI [C40]

- EC50 (FGFR/KL complex; Table 3, p-Erk): 0.00029 ± 0.00012 µM
B2: FGF23 A^222: FGF23^25-240, A^222 (protein)
chain: YPNASPLLGSSWGGLIHLYTATARNSYHLQIHKNGHVDGAPHQTIYSALMIRSEDAGFVVITGVMSRRYLCMDFRGNIFGSHYFDPENCRFQHQTLENGYDVYHSPQYHFLVSLGRAKRAFLPGMNPPPYSQFLSRRNEIPLIHFNTPIPRRHTRSAEDDSERDPLNVLKPRARMTPAPASCSQELPSAEDNSPMASAPLGVVRGGRVNTHAGGTG
- kidney Cyp24a1 mRNA expression vs vehicle [1]: significant elevation
- kidney Cyp27b1 mRNA expression vs vehicle [1]: coordinate suppression
- Egr1 induction as compared to native FGF23 ([1]; kidney): reduced
- magnitude of Cyp24a1 effect as compared to native FGF23 ([1]; kidney): fractionally reduced
- FGF23-type agonism / FGFR/KL activation (in words) (FGFR/KL complex): comparable potency to native protein

- IC50 (FGFR/KL-complex; [3]): 0.0012 µM
- enhancement of antagonistic potency relative to C26 (FGFR/KL-complex; fold): seventy
- enhancement of antagonistic potency relative to C28 (FGFR/KL-complex; fold): thirty-fold
B3: FGF23^180-251: SAEDD SER-- DPLNV LKPRA RMTPA PAS CSQELP SAEDNSPMASDPLGVVRGGRVNTHAGGT GPEGC RPFAKFI (peptide)
chain: SAEDDSERDPLNVLKPRARMTPAPASCSQELPSAEDNSPMASDPLGVVRGGRVNTHAGGTGPEGCRPFAKFI
